From ChEMBL document CHEMBL1136560, “1,4-Diazepane-2-ones as novel inhibitors of LFA-1” (Bioorg Med Chem Lett, 2003)

Target: Intercellular adhesion molecule (ICAM-1), Integrin alpha-L/beta-2 (Homo sapiens, UniProt P05107+P20701)
Assay: Inhibition of LFA-1/ICAM-1 interaction in ELISA
Format: protein-complex assay

Chain of Intercellular adhesion molecule (ICAM-1), Integrin alpha-L/beta-2 (P20701 whole entry): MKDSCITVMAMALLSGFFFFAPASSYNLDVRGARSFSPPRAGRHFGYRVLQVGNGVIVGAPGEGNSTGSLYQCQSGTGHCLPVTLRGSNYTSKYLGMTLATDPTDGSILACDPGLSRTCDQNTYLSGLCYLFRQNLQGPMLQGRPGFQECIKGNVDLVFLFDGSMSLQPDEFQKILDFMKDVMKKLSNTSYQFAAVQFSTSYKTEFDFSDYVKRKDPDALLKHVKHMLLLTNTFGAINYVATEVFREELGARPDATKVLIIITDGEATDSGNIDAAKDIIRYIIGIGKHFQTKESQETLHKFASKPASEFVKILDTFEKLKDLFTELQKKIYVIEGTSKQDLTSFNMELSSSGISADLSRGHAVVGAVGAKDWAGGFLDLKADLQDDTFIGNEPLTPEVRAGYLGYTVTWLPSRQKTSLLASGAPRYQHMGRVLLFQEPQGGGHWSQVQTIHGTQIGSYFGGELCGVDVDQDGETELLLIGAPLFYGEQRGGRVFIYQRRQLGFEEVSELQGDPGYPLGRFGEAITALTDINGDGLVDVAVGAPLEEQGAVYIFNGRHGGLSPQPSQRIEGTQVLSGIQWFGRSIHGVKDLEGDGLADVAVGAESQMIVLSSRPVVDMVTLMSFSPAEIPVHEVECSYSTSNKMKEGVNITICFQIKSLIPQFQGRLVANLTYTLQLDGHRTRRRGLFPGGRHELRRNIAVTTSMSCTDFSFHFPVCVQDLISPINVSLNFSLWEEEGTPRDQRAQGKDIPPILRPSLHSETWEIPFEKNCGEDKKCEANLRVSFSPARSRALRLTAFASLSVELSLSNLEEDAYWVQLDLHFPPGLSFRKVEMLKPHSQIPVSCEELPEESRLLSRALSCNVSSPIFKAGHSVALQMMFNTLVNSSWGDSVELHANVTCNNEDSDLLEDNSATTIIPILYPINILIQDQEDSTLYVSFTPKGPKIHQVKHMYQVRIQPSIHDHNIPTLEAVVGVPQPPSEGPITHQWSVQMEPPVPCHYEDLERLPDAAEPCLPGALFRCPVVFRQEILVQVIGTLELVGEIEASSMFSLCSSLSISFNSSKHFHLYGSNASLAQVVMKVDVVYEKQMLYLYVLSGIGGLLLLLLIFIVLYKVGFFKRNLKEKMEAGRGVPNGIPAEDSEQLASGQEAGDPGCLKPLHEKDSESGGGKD
Chain of Intercellular adhesion molecule (ICAM-1), Integrin alpha-L/beta-2 (P05362 whole entry, further chain): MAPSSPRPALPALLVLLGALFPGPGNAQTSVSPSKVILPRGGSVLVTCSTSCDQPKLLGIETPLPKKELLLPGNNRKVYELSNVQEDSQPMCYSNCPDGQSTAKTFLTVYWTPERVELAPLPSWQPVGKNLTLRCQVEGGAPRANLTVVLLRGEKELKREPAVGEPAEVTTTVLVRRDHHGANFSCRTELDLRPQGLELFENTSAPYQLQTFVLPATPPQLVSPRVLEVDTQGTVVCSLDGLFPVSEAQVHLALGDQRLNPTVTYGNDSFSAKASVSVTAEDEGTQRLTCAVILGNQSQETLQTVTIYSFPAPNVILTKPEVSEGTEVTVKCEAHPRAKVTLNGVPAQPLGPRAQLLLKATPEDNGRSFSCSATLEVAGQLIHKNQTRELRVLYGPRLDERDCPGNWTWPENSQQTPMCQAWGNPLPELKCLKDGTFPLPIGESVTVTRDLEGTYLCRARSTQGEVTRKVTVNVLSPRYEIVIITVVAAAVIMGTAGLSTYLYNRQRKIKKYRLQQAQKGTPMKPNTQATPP
Chain of Intercellular adhesion molecule (ICAM-1), Integrin alpha-L/beta-2 (P05107 whole entry): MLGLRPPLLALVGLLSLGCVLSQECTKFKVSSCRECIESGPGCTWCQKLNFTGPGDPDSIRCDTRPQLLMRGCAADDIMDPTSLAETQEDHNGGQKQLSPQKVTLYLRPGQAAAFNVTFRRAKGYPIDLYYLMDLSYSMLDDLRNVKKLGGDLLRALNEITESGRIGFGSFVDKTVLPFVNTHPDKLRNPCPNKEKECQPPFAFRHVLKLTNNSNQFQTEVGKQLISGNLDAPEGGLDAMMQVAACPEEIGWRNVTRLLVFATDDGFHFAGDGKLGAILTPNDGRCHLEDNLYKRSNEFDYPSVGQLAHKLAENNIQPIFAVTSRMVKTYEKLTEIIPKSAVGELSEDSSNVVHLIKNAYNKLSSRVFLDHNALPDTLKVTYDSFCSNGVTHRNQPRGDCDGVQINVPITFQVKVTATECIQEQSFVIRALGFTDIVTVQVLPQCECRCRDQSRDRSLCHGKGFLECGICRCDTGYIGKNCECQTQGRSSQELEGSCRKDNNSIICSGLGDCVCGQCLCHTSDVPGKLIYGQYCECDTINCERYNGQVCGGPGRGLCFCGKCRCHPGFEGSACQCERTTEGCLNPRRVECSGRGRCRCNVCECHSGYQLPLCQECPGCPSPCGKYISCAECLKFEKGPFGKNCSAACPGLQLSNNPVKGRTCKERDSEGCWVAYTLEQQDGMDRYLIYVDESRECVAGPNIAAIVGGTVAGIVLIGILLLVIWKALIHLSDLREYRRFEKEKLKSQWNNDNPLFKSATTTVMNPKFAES

Row | SMILES | IC50
1 | CC(C)C[C@H]1C(=O)N([C@@H](Cc2ccc3ccccc3c2)C(N)=O)CC[C@@H](C)N1C(=O)Cc1ccncc1 | 970 nM
2 | CC(C)C[C@H]1C(=O)N([C@@H](Cc2ccc3ccccc3c2)C(N)=O)CC[C@@H](C)N1C(=O)Cc1ccccc1 | 750 nM
3 | CC(C)C[C@H]1C(=O)N([C@H](C(N)=O)c2ccc3ccccc3c2)CCC(C)N1C(=O)Cc1ccc2ccccc2c1 (some centres not stated) | > 20000 nM
4 | CC(C)C[C@H]1C(=O)N([C@@H](Cc2ccc3ccccc3c2)C(=O)O)CC[C@@H](C)N1C(=O)Cc1ccc2ccccc2c1 | > 20000 nM

Continued by falling IC50, values first:

Row | IC50 | SMILES
5 | 2600 nM | COC(=O)[C@H](Cc1ccc2ccccc2c1)N1CC[C@@H](C)N(C(=O)Cc2ccc3ncccc3c2)[C@@H](CC(C)C)C1=O
6 | 2000 nM | CC(C)C[C@H]1C(=O)N([C@@H](Cc2ccc3ccccc3c2)C(N)=O)CC[C@@H](C)N1C(=O)Cc1ccc2ccccc2c1
7 | 1300 nM | CC(C)C[C@H]1C(=O)N([C@@H](Cc2ccc3ccccc3c2)C(N)=O)CC[C@@H](C)N1C(=O)Cc1ccc(Br)cc1
